{"source": "patent US11707062B2", "about": "“Formulation of stearyl alcohol” (PRO FARM GROUP, INC., priority 2017, dated 2023)", "key": {"[1]": {"experiment": "Percent light transmittance by spectrophotometer", "format": "physicochemical", "conditions": "depending on the concentration of material applied", "description": "FIG. 8 denotes percent light transmission (% T) of wavelengths between 200 and 750 nm. UV-B radiation occurs at 280-315 nm (dashed green lines), while photosynthetically active radiation occurs between 400-700 nm (solid green lines). The rows of symbols correspond to 12 mL/L concentrations of formulated stearyl alcohol (triangles) and two alternate formulations (squares, diamonds). Water (circles) results in 100% light transmittance. To test the hypothesis that stearyl alcohol reduces transmission of light radiation, particularly within the UV-B spectrum, percent (%) transmittance were measured using a spectrophotometer. stearyl alcohol was diluted to 1/100th of the field application rate (6 mL/L active ingredient) for both visible and non-visible UV light spectra. Visible light spectral analysis was conducted using a 96 well plate while UV transparent cuvettes and 96 well plates were utilized to analyze the percent light transmittance at the UV spectrum. For all spectrophotometer light transmittance screenings, both a water reference and plate blank were used to calibrate the ratio of light energy transmitted through the formulation samples to the energy transmitted through the reference blank. Treatments were replicated three times."}, "soybean leaves": {"test_system": "soybean leaves", "experiment": "Leaf temperature and gas exchange of attached soybean leaves in a field", "format": "in vivo", "conditions": "1% v/v DI water solution on upper leaf surface; SE±0.31; P-value<0.02, paired t-test", "source_text": "FIG. 9 denotes a comparison of the temperature depression caused by stearyl alcohol application to leaves. Points represent temperatures measured at 9 time intervals on four pairs of leaves. FIG. 10 denotes a comparison of photosynthetic capacity of treated leaves, control leaves and leaves prior to stearyl alcohol application. Photosynthetic capacity variation is interpreted as a treatment having higher/lower photosynthesis values than the control for the same stomatal conductance To test the hypothesis that stearyl alcohol reduces internal leaf temperatures while not adversely affecting photosynthesis, stearyl alcohol was applied to eight attached soybean leaves selected from plants growing in a field. The leaves were spaced in blocks so that two leaves could be compared to each other as control/treatment pairs. The leaves were placed in fishing line, wood and metal holders that restrained the leaves in an exposed and horizontal orientation (to prevent leaf orientation changes affecting the leaf energy balance and temperature). Leaf temperature was measured with an IR thermometer three times before and six times after application of a 1% v/v DI water solution of stearyl alcohol to the upper leaf surface, applied using a household spray bottle. Full coverage of the leaf surface was achieved and excess water shaken off. Leaves were dry within half an hour. […]"}, "tomato plants": {"test_system": "tomato plants", "experiment": "Controlled lab bioassay of transpiration under moderate heat stress", "format": "in vivo", "description": "FIG. 11 denotes mean transpiration rates of tomato plants treated with stearyl alcohol at 72 hours after application. Bars represent standard errors. A controlled lab bioassay was run to evaluate the ability of stearyl alcohol to decrease transpiration of tomato plants under moderate heat stress. stearyl alcohol was applied at a 6 mL/L concentration in water to five tomato plants at the 6-8 leaf stage growing in 8.9 cm square pots, using a research track sprayer. Sombrero, a commercially available calcium carbonate plant sunscreen product, was applied as a positive control and deionized water as a negative control. The application rate was equivalent to 150 liters of diluted product per acre. After sealing pots with plastic bags to prevent water loss through evaporation from the soil surface and measuring total pot and plant weight, the plants were placed in randomized complete blocks in a growth chamber set to 26° C. with 50% relative humidity, x 3000 μW/cm2 illumination for 14 hours per day. Sealed pots and plants were again weighed at 24, 48 and 72 hours after application. Differences in weight were attributed to water loss through transpiration. Plant mass was then plotted against time, and the slope of the linear regression was taken to be the rate of water loss in Average surface area of the leaves (cm2) was calculated using a digital leaf area scanner. Mean transpiration rate was then calculated as: Rate=Water Loss Rate (μg/sec)/Total Leaf Area (cm2)."}, "[2]": {"test_system": "wine (Merlot) and table (Princess) grape varieties", "experiment": "Solar radiation damage in Chilean vineyards", "format": "in vivo", "conditions": "3, 6 or 9 mL/L in 100 L of water; at harvest", "source_text": "FIG. 13 denotes number of sun-damaged bunches of Merlot grape. Bars represent standard error for total number of damaged bunches. Letters are the same for each category of damage and represent significant differences according to a Tukey test for separation of means with α=0.05.\nFIG. 14 denotes number of sun-damaged bunches of Princesa table grape. Bars represent standard error for number of damaged bunches. Letters represent significant differences in number of damaged bunches according to a Tukey test for separation of means with α=0.05.\nTo evaluate for protection from excess or harmful solar radiation, stearyl alcohol was applied by Duarte and Associates in established Chilean vineyards planted with wine (Merlot) and table (Princess) grape varieties. Plants were treated in 2014 with 3, 6 or 9 mL/L in 100 L of water when berries reached 11 mm in diameter and at two week intervals over the subsequent six weeks. Five contiguous vines were sprayed per treatment; treatments were replicated 3 times and arranged in a random complete block design. At harvest, bunches were counted per plant, yields assessed, sugar content measured and solar radiation damage rated."}, "almond": {"test_system": "almond", "experiment": "Almond orchard field trial, yield"}}}
{"smiles": "CCCCCCCCCCCCCCCCCCO", "note": "[stearyl alcohol]", "values": [{"measurement": "reductions of light in the photosynthetically active radiation spectrum", "setting": "[1]; 400-700 nm", "result": "10-15%"}, {"measurement": "reductions of transmitted UV-B radiation", "setting": "[1]; UV-B 280-315 nm", "result": "20-50%"}, {"measurement": "apparent depression in leaf temperatures after application", "setting": "soybean leaves", "result": 1.5, "unit": "degree C."}, {"measurement": "mean transpiration rate", "setting": "tomato plants; 6 mL/L stearyl alcohol, 26° C., 50% relative humidity, up to 72 hours after application, untreated control 6.68", "result": 5.33, "unit": "μg/cm2/sec"}, {"measurement": "average reductions in leaf temperature", "setting": "tomato plants; tomato plants, growth chamber 26° C.", "result": "1.50 (±0.35) ° C."}, {"measurement": "reductions in transpiration", "setting": "tomato plants; vs untreated control", "result": "about 20%"}, {"measurement": "damaged bunches, table grape (Princess)", "setting": "[2]", "result": "fewer damaged bunches"}, {"measurement": "damaged bunches, wine grape (Merlot)", "setting": "[2]", "result": "fewer damaged bunches"}, {"measurement": "crop safety in pre-harvest field assessments", "setting": "almond; almond orchard, six assessment dates", "result": "confirmed the crop safety"}, {"measurement": "almond yields", "setting": "almond; stearyl alcohol 6 ml/L three applications, Surround 50 lbs per acre, untreated 2.8 tons/A", "result": 3.2, "unit": "tons/A"}]}
